We go through 15 molecules from patent publication US10780090B2, “Heteroaryl compounds useful as inhibitors of SUMO activating enzyme” (Millennium Pharmaceuticals, Inc., priority 2014, dated 2020).

For this test, the target named is recombinant human SAE enzyme (Homo sapiens (Human), UniProt Q9UBT2). Briefly: SAE HTRF enzyme assay. Format: biochemical. To be noted: for inhibition at 0.111 µM: read-out: Percent Inhibition. The method in brief: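 0.11 nM SAE incubated with 0.5 μM ATP, 0.01 μM Ubc9-GST and 0.125 μM Sumo-Flag in HEPES pH 7.5, MgCl2, GSH, BSA, ±inhibitor, 105 min at 24° C. EDTA stop; Eu-cryptate anti-Flag/XL-APC anti-GST HTRF read after 2 h. Values given as single-concentration % inhibition or IC50.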

[1] abbreviates: SAE inhibition at compound concentration 0.111 μM.
Where [2] appears, read: SAE inhibition, class symbols, legend in nM.

recombinant human SAE enzyme, sequence (Q9UBT2 whole entry): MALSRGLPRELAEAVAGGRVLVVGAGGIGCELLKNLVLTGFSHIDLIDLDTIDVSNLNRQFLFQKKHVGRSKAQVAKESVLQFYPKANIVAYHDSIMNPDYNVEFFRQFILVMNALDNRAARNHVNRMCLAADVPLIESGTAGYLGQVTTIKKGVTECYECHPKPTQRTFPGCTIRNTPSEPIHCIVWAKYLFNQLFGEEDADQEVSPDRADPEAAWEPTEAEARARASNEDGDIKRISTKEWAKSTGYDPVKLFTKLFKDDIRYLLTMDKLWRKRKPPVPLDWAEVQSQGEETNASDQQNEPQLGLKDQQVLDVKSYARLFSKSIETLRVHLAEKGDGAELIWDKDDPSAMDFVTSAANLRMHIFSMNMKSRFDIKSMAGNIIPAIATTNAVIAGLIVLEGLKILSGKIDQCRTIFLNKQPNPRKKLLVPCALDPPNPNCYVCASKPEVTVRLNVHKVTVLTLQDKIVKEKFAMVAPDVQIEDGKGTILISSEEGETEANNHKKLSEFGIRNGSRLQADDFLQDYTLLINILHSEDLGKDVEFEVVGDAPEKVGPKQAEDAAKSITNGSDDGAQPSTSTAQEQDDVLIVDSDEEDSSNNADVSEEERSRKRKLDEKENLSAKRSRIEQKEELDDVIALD
recombinant human SAE enzyme, sequence (Q9UBE0 whole entry partner): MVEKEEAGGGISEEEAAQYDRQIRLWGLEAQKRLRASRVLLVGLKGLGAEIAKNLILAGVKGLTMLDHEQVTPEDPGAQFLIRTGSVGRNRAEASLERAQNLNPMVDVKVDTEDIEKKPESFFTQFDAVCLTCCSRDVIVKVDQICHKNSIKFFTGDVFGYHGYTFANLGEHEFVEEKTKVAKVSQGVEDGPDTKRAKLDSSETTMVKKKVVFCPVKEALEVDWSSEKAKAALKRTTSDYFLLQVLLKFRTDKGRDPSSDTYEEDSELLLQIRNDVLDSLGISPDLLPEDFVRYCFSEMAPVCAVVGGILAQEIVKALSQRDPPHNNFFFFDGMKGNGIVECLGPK

In the case of `NS(=O)(=O)OC[C@H]1C[C@@H](Nc2ncncc2C(=O)c2cc([C@H]3OCC4(CC4)c4ccccc43)cs2)C[C@@H]1O` (mixture of isomers) [I-281, [(1R,2S,4R)-2-hydroxy-4-{[5-({4-[(1′R)-1′H-spiro[cyclopropane-1,4′-isochromen]-1′-yl]-2-thienyl}carbonyl)pyrimidin-4-yl]amino}cyclopentyl]methyl sulfamate and [(1R,2S,4R)-2-hydroxy-4-{[5-({4-[(1′S)-1′H-spiro[cyclopropane-1,4′-isochromen]-1′-yl]-2-thienyl}carbonyl)pyrimidin-4-yl]amino}cyclopentyl]methyl sulfamate], the “Percent Inhibition” value under setting [1] worked out at 98%. Moreover, the IC50 under setting [2] was under 10 nM.

In the case of `C[C@@](O)(c1ccccc1)c1coc(C(=O)c2cncnc2N[C@@H]2C[C@H](COS(N)(=O)=O)[C@@H](O)C2)c1.C[C@](O)(c1ccccc1)c1coc(C(=O)c2cncnc2N[C@@H]2C[C@H](COS(N)(=O)=O)[C@@H](O)C2)c1` (mixture of isomers) [I-58, {(1R,2S,4R)-2-hydroxy-4-[(5-{4-[(1S)-1-hydroxy-1-phenylethyl]-2-furoyl}pyrimidin-4-yl)amino]cyclopentyl}methyl sulfamate and {(1R,2S,4R)-2-hydroxy-4-[(5-{4-[(1R)-1-hydroxy-1-phenylethyl]-2-furoyl}pyrimidin-4-yl)amino]cyclopentyl}methyl sulfamate], the “Percent Inhibition” value (Concentration 0.111 μM) turned out to be 96. Further, where the note is “class symbols A/B/C”, the IC50 is under 10 nM.

Regarding `NS(=O)(=O)OC[C@H]1C[C@@H](Nc2ncncc2C(=O)c2cc([C@H]3OCCc4cccc(Cl)c43)cs2)C[C@@H]1O` [I-365, [(1R,2S,4R)-4-[[5-[4-[(1S)-chloroisochroman-1-yl]thiophene-2-carbonyl]pyrimidin-4-yl]amino]-2-hydroxy-cyclopentyl]methyl sulfamate and [(1R,2S,4R)-4-[[5-[4-[(1R)-8-chloroisochroman-1-yl]thiophene-2-carbonyl]pyrimidin-4-yl]amino]-2-hydroxy-cyclopentyl]methyl sulfamate], the “Percent Inhibition” value under setting [1] was 62%. Moreover, the IC50 under setting [2] fell in the range of 10 to 100 nM.

Consider `CC(C)(O)c1csc(C(=O)c2cncnc2N[C@@H]2C[C@H](COS(N)(=O)=O)[C@@H](O)C2)c1` [I-240, {(1R,2S,4R)-2-Hydroxy-4-[(5-{[4-(2-hydroxypropan-2-yl)-2-thienyl]carbonyl}pyrimidin-4-yl)amino]cyclopentyl}methyl sulfamate], for which, for the setting “Concentration 0.111 μM”, the inhibition at 0.111 µM came out at 19%. Also, for the setting “class symbols A/B/C”, the IC50 lay in the range of 100 to 1000 nM.

Take `NS(=O)(=O)OC[C@H]1C[C@@H](Nc2ncncc2C(=O)c2cc([C@H](O)c3cccc(Cl)c3)c(Cl)s2)C[C@@H]1O` (single isomer, unassigned) [I-9a, [(1R,2S,4R)-4-{[5-({5-chloro-4-[(R)-(3-chlorophenyl)(hydroxy)methyl]-2-thienyl}carbonyl)pyrimidin-4-yl]amino}-2-hydroxycyclopentyl]methyl sulfamate or [(1R,2S,4R)-4-{[5-({5-chloro-4-[(S)-(3-chlorophenyl)(hydroxy)methyl]-2-thienyl}carbonyl)pyrimidin-4-yl]amino}-2-hydroxycyclopentyl]methyl sulfamate]: under “Concentration 0.111 μM”, the “Percent Inhibition” value worked out at 99. Further, under “class symbols A/B/C”, the IC50 was under 10 nM.

In the case of `NS(=O)(=O)OC[C@H]1C[C@@H](Nc2ncncc2C(=O)c2cc([C@@H]3CCc4ccc(Cl)cc43)cs2)C[C@@H]1O` (single isomer, unassigned) [I-349b, [(1R,2S,4R)-4-{[5-({4-[(1R)-6-chloro-2,3-dihydro-1H-inden-1-yl]-2-thienyl}carbonyl)pyrimidin-4-yl]amino}-2-hydroxycyclopentyl]methyl sulfamate or [(1R,2S,4R)-4-{[5-({4-[(1S)-6-chloro-2,3-dihydro-1H-inden-1-yl]-2-thienyl}carbonyl)pyrimidin-4-yl]amino}-2-hydroxycyclopentyl]methyl sulfamate], the “Percent Inhibition” value under setting [1] was found to be 58%. For the same molecule, under setting [2], the IC50 was in the range of 10 to 100 nM.

As for `Cc1nc2c(s1)CCO[C@H]2c1cc(C(=O)c2cncnc2N[C@@H]2C[C@H](COS(N)(=O)=O)[C@@H](O)C2)sc1C` (mixture of isomers) [I-287, [(1R,2S,4R)-2-hydroxy-4-{[5-({5-methyl-4-[(4S)-2-methyl-6,7-dihydro-4H-pyrano[3,4-d][1,3]thiazol-4-yl]-2-thienyl}carbonyl)pyrimidin-4-yl]amino}cyclopentyl]methyl sulfamate and [(1R,2S,4R)-2-hydroxy-4-{[5-({5-methyl-4-[(4R)-2-methyl-6,7-dihydro-4H-pyrano[3,4-d][1,3]thiazol-4-yl]-2-thienyl}carbonyl)pyrimidin-4-yl]amino}cyclopentyl]methyl sulfamate], under setting [1], the “Percent Inhibition” value is 97%. The concentration for half-maximal inhibition (IC50) under setting [2] was under 10 nM.

As for `C[C@](O)(c1ccccc1)c1coc(C(=O)c2cncnc2N[C@@H]2C[C@H](COS(N)(=O)=O)[C@@H](O)C2)c1` (single isomer, unassigned) [I-58b, {(1R,2S,4R)-2-hydroxy-4-[(5-{4-[(1S)-1-hydroxy-1-phenylethyl]-2-furoyl}pyrimidin-4-yl)amino]cyclopentyl}methyl sulfamate or {(1R,2S,4R)-2-hydroxy-4-[(5-{4-[(1R)-1-hydroxy-1-phenylethyl]-2-furoyl}pyrimidin-4-yl)amino]cyclopentyl}methyl sulfamate], for the setting “Concentration 0.111 μM”, the “Percent Inhibition” value is given as 100. Under “class symbols A/B/C”, the IC50 is under 10 nM.

With `N[C@H](c1cccc(Cl)n1)c1cc(C(=O)c2cncnc2N[C@@H]2C[C@H](COS(N)(=O)=O)[C@@H](O)C2)sc1Cl` (single isomer, unassigned) [I-25a, [(1R,2S,4R)-4-{[5-({4-[(S)-amino(6-chloropyridin-2-yl)methyl]-5-chloro-2-thienyl}carbonyl)pyrimidin-4-yl]amino}-2-hydroxycyclopentyl]methyl sulfamate or [(1R,2S,4R)-4-{[5-({4-[(R)-amino(6-chloropyridin-2-yl)methyl]-5-chloro-2-thienyl}carbonyl)pyrimidin-4-yl]amino}-2-hydroxycyclopentyl]methyl sulfamate], the “Percent Inhibition” value (Concentration 0.111 μM) came to 97. Besides, under “class symbols A/B/C”, the half-inhibitory concentration (IC50) is under 10 nM.

As to `NS(=O)(=O)OC[C@H]1C[C@@H](Nc2ncncc2C(=O)c2cc(Cn3ccc4cccnc43)cs2)C[C@@H]1O` [I-92, {(1R,2S,4R)-2-hydroxy-4-[(5-{[4-(1H-pyrrolo[2,3-b]pyridin-1-ylmethyl)-2-thienyl]carbonyl}pyrimidin-4-yl)amino]cyclopentyl}methyl sulfamate], where the note is “Concentration 0.111 μM”, the inhibition at 0.111 µM came out at 98%. The IC50 (class symbols A/B/C) is under 10 nM.

As for `Cc1sc(C(=O)c2cncnc2N[C@@H]2C[C@H](COS(N)(=O)=O)[C@@H](O)C2)cc1[C@@H]1OCCc2ccc(Cl)nc21` (mixture of isomers) [I-286, [(1R,2S,4R)-4-{[5-({4-[(8S)-2-chloro-5,8-dihydro-6H-pyrano[3,4-b]pyridin-8-yl]-5-methyl-2-thienyl}carbonyl)pyrimidin-4-yl]amino}-2-hydroxycyclopentyl]methyl sulfamate and [(1R,2S,4R)-4-{[5-({4-[(8R)-2-chloro-5,8-dihydro-6H-pyrano[3,4-b]pyridin-8-yl]-5-methyl-2-thienyl}carbonyl)pyrimidin-4-yl]amino}-2-hydroxycyclopentyl]methyl sulfamate], the “Percent Inhibition” value under setting [1] was found to be 99%. Besides, the IC50 under setting [2] was under 10 nM.

On to `NS(=O)(=O)OC[C@H]1C[C@@H](Nc2ncncc2C(=O)c2cc([C@@H]3SCCc4ccc(Cl)cc43)cs2)C[C@@H]1O.NS(=O)(=O)OC[C@H]1C[C@@H](Nc2ncncc2C(=O)c2cc([C@H]3SCCc4ccc(Cl)cc43)cs2)C[C@@H]1O` (mixture of isomers) [I-320, [(1R,2S,4R)-4-{[5-({4-[(1R)-7-chloro-3,4-dihydro-1H-isothiochromen-1-yl]-2-thienyl}carbonyl)pyrimidin-4-yl]amino}-2-hydroxycyclopentyl]methyl sulfamate and [(1R,2S,4R)-4-{[5-({4-[(1S)-7-chloro-3,4-dihydro-1H-isothiochromen-1-yl]-2-thienyl}carbonyl)pyrimidin-4-yl]amino}-2-hydroxycyclopentyl]methyl sulfamate], for which, under setting [1], the “Percent Inhibition” value is 92%. Further, the concentration for half-maximal inhibition (IC50) under setting [2] is 10 to 100 nM.

Turning to `NS(=O)(=O)OC[C@H]1C[C@@H](Nc2ncncc2C(=O)c2ccc([C@@H]3OCCCc4ccc(Cl)cc43)s2)C[C@@H]1O` (single isomer, unassigned) [I-343b, [(1R,2S,4R)-4-{[5-({5-[(1R)-8-chloro-1,3,4,5-tetrahydro-2-benzoxepin-1-yl]-2-thienyl}carbonyl)pyrimidin-4-yl]amino}-2-hydroxycyclopentyl]methyl sulfamate or [(1R,2S,4R)-4-{[5-({5-[(1S)-8-chloro-1,3,4,5-tetrahydro-2-benzoxepin-1-yl]-2-thienyl}carbonyl)pyrimidin-4-yl]amino}-2-hydroxycyclopentyl]methyl sulfamate], the “Percent Inhibition” value under setting [1] is on record as 84%. Also, the IC50 under setting [2] is 10 to 100 nM.

As to `Cc1oc(C(=O)c2cncnc2N[C@@H]2C[C@H](COS(N)(=O)=O)[C@@H](O)[C@@H]2F)cc1Cc1cccc(Br)c1` [I-64, [(1R,2R,3R,4R)-4-({5-[4-(3-bromobenzyl)-5-methyl-2-furoyl]pyrimidin-4-yl}amino)-3-fluoro-2-hydroxycyclopentyl]methyl sulfamate], under “Concentration 0.111 μM”, the inhibition at 0.111 µM was 99%. The IC50 (class symbols A/B/C) is under 10 nM.

Regarding `C=C(C)[C@H](O)c1cc(C(=O)c2cncnc2N[C@@H]2C[C@H](COS(N)(=O)=O)[C@@H](O)C2)sc1Cl` (mixture of isomers) [I-141, [(1R,2S,4R)-4-{[5-({5-chloro-4-[(1S)-1-hydroxy-2-methylprop-2-en-1-yl]-2-thienyl}carbonyl)pyrimidin-4-yl]amino}-2-hydroxycyclopentyl]methyl sulfamate and [(1R,2S,4R)-4-{[5-({5-chloro-4-[(1R)-1-hydroxy-2-methylprop-2-en-1-yl]-2-thienyl}carbonyl)pyrimidin-4-yl]amino}-2-hydroxycyclopentyl]methyl sulfamate], the “Percent Inhibition” value (Concentration 0.111 μM) came out at 95. For the same molecule, the 50% inhibitory concentration (IC50) (class symbols A/B/C) is under 10 nM.
